Assay results published in patent US20220193256A1, “NANO-ANTIBIOTICS BASED ON SINGLE-CHAIN DEXTRAN NANOPARTICLES” (priority 2019, published 2022).
Values after ≈ are worked out from the molar mass of the structure shown. Marks after values point to notes of the source that are not given here.

What was measured:
[1] = tested on: K. pneumoniae ATCC BAA-2146; test: MIC, antimicrobial susceptibility test (CLSI M07-A10); type: cell-based; conditions: Klebsiella pneumoniae, ATCCBAA2146; read-out: Test Article MIC
Procedure: (§1) All test and quality control strains were recovered from frozen storage (−80° C.) and cultured at 35±2° C. for 18-24 h.
(§2) All test articles were dissolved in sterile ultra-pure water at a concentration of 2.56 mg/mL. […] 100 and 200 μL of drug-free medium was added to positive and negative control wells, respectively. Suspensions equivalent to a McFarland 0.5 standard were prepared for each test strain in 5 mL sterile phosphate-buffered saline (PBS) and further diluted 1:150 in CA-MHB to provide an inoculum of 2-8×10^5 CFU/mL. 100 μL of each inoculum was dispensed into all wells—except negative control wells (100 μL sterile water added)—to provide an inoculum of ˜5×10^5 CFU/well and a final volume of 200 μL per well. Assay plates were incubated according to CLSI M07-A10 guidelines of 35±2° C. for 16-20 h in air.

K. pneumoniae ATCC 43816 = test: as above; type: cell-based
Procedure: as §1, §2

[2] = tested on: A. baumannii ATCC BAA-747; test: as above; type: cell-based
Procedure: as §1, §2

A. baumannii NCTC 12156 = test: as above; type: cell-based
Procedure: as §1, §2

E. aerogenes KPC 108 = test: as above; type: cell-based
Procedure: as §1, §2

P. aeruginosa ATCC 13437 = test: as above; type: cell-based; conditions: replicates 1 and 2, as tobramycin concentration
Procedure: as §1, §2

E. coli ATCC 25922 = test: as above; type: cell-based
Procedure: as §1, §2

[3] = tested on: E. cloacae complex KPC 114; test: as above; type: cell-based
Procedure: as §1, §2

P. aeruginosa ATCC 27853 [4] = test: as above; type: cell-based
Procedure: as §1, §2

E. coli ATCC BAA-2469 = test: as above; type: cell-based; conditions: Escherichia coli, ATCCBAA2469; read-out: Test Article MIC
Procedure: as §1, §2

[5] = tested on: biofilm of Pseudomonas Aeruginosa PAO1 gfp; test: Testing against biofilm; type: cell-based; conditions: 3-day biofilm treated for 12 h, tobramycin concentration 2 μg/mL
Procedure: Continuous biofilm of Pseudomonas Aeruginosa PAO1 gfp in LB medium was grown for 3 days. […] Images were obtained using a 20×/0.80 air objective with Zeiss LSM 800 Confocal laser scanning microscope. Simulated fluorescence projections and orthogonoal views sections were processed using ImageJ software. Data were analysed with COMSTAT2 software.

S. aureus = test: MIC 50 of free antibiotics and nanoconjugates; type: cell-based
Procedure: as §1, §2

P. aeruginosa = test: MIC 50 of free antibiotics and nanoconjugates; type: cell-based
Procedure: as §1, §2

[6] = Release profile test of tobramycin in PBS (dialysis tubes, LC-MS); type: in vitro ADME; conditions: PBS pH 7.4, 37° C.
Procedure: 1 mL dialysis tubes (Float-a-lyzer®) were used whose membrane is based on MWCO 8-10 kDa cellulose ester. […] The studies were performed in a chamber at 37° C. and stirring at 250 rpm. Samples were taken at different times and analyzed by LC-MS.

[7] = In vivo pharmacokinetic profile in the lungs after oropharyngeal deposition; design: species or system Sprague Dawley rats; conditions: male, Sprague Dawley, rat, lung homogenate, other: oropharyngeal deposition, 10 mg/kg
Procedure: The administration technique was oropharyngeal deposition. Following administration, terminal lung samples were collected at the following time-points: 0.083, 0.25, 0.5, 1, 2, 4, 8, 12, 24 h post-dose.
For the purpose of the invention, the AUC was measured by the trapezoidal method using the following formula: […]

PACC#10 = test: MIC by visual inspection, P. aeruginosa panel; type: cell-based; conditions: Pseudomonas aeruginosa; PACC#10, clinical isolate, mucoid phenotype; read-out: Test Article MIC
Procedure: (§3) The clinical isolates were obtained from the Biobank of the Hospital Donostia/Biodonostia (San Sebastian, Spain) with permission. MIC is obtained by visual inspection and considered the minimum concentration at which no bacterial growth can be detected (i. e. the buffer appears transparent) when bacteria was incubated at gradient concentration of test compound.

PACC#6 = test: MIC by visual inspection, P. aeruginosa panel; type: cell-based; conditions: Pseudomonas aeruginosa; read-out: Test Article MIC
Procedure: as §3

PACC#5 = test: MIC by visual inspection, P. aeruginosa panel; type: cell-based; conditions: Pseudomonas aeruginosa; PACC#5, clinical isolate, mucoid phenotype; read-out: Test Article MIC
Procedure: as §3

PA14 DSMZ 19882 = test: MIC by visual inspection, P. aeruginosa panel; type: cell-based; conditions: Pseudomonas aeruginosa; PA14 DSMZ 19882, investigational strain; read-out: Test Article MIC
Procedure: as §3

PACC#9 = test: MIC by visual inspection, P. aeruginosa panel; type: cell-based; conditions: Pseudomonas aeruginosa; PACC#9, clinical isolate, mucoid phenotype; read-out: Test Article MIC
Procedure: as §3

PACC#7 = test: MIC by visual inspection, P. aeruginosa panel; type: cell-based; conditions: Pseudomonas aeruginosa; PACC#7, clinical isolate, mucoid phenotype; read-out: Test Article MIC
Procedure: as §3

PACC#8 = test: MIC by visual inspection, P. aeruginosa panel; type: cell-based; conditions: Pseudomonas aeruginosa; PACC#8, clinical isolate; read-out: Test Article MIC
Procedure: as §3

PAO1 DSMZ 22644 = test: MIC by visual inspection, P. aeruginosa panel; type: cell-based; conditions: Pseudomonas aeruginosa; PAO1 DSMZ 22644, investigational strain; read-out: Test Article MIC
Procedure: as §3

P. aeruginosa ATCC 27853 [8] = test: MIC by visual inspection, P. aeruginosa panel; type: cell-based; conditions: Pseudomonas aeruginosa, ATCC27853; P. aeruginosa ATCC 27853, reference strain; read-out: Test Article MIC
Procedure: as §3

NC[C@H]1O[C@H](O[C@H]2[C@H](O)[C@@H](O[C@H]3O[C@H](CO)[C@@H](O)[C@H](N)[C@H]3O)[C@H](N)C[C@@H]2N)[C@H](N)C[C@@H]1O [Tobramycin, tobramycin]
MIC [1]: > 128 µg/mL | Test Article MIC (K. pneumoniae ATCC 43816; K. pneumoniae ATCC 43816, replicates 1 and 2, as tobramycin concentration): 0.5 µg/mL | MIC (K. pneumoniae ATCC 43816; Klebsiella pneumoniae, ATCC43816, read-out: Test Article MIC): 0.5 µg/mL (≈ 1.07 µM) | Test Article MIC ([2]; A. baumannii ATCC BAA-747, replicates 1 and 2, as tobramycin concentration): 0.5 µg/mL | MIC ([2]; Acinetobacter baumannii, ATCCBAA747, read-out: Test Article MIC): 0.5 µg/mL (≈ 1.07 µM) | Test Article MIC (A. baumannii NCTC 12156; A. baumannii NCTC 12156, replicates 1 and 2, as tobramycin concentration): 4 µg/mL | MIC (A. baumannii NCTC 12156; Acinetobacter baumannii, NCTC12156, read-out: Test Article MIC): 4 µg/mL (≈ 8.56 µM) | Test Article MIC (E. aerogenes KPC 108; E. aerogenes KPC 108, replicates 1 and 2, as tobramycin concentration): 4 µg/mL | MIC (E. aerogenes KPC 108; Klebsiella aerogenes, KPC108, read-out: Test Article MIC): 4 µg/mL (≈ 8.56 µM) | Test Article MIC (P. aeruginosa ATCC 13437; P. aeruginosa ATCC 13437, listed as Free Tobramycin): 64 µg/mL | MIC (P. aeruginosa ATCC 13437; Pseudomonas aeruginosa, ATCC13437, P. aeruginosa ATCC 13437, read-out: Test Article MIC): 128 µg/mL (≈ 274 µM) | Test Article MIC (E. coli ATCC 25922; E. coli ATCC 25922, replicates 1 and 2, as tobramycin concentration): 2^a μg/mL | MIC (E. coli ATCC 25922; Escherichia coli, ATCC25922, read-out: Test Article MIC): 2 µg/mL (≈ 4.28 µM) | Test Article MIC ([3]; E. cloacae complex KPC 114, replicates 1 and 2, as tobramycin concentration): 32 µg/mL | MIC ([3]; Enterobacter cloacae, read-out: Test Article MIC): 32 µg/mL (≈ 68.4 µM) | Test Article MIC (P. aeruginosa ATCC 27853 [4]; P. aeruginosa ATCC 27853, replicates 1 and 2, as tobramycin concentration): 1^b μg/mL | MIC (P. aeruginosa ATCC 27853 [4]; Pseudomonas aeruginosa, ATCC27853, read-out: Test Article MIC): 1 µg/mL (≈ 2.14 µM) | MIC (E. coli ATCC BAA-2469): > 128 µg/mL | % Biomass (μm^3/μm^2) [5]: 68.1% | % Biomass (μm^3/μm^2) ([5]; listed as tobramycin): 68.1% | MIC 50, Antibiotic conc. (S. aureus): 0.5 to 1 µg/mL | MIC 50, Antibiotic conc. (P. aeruginosa): 0.5 to 1 µg/mL | Tobramycin released (%) ([6]; time 0 hour): 0.30% | Tobramycin released (%) ([6]; time 1 hour): 2.91% | Tobramycin released (%) ([6]; time 2 hour): 7.57% | Tobramycin released (%) ([6]; time 4 hour): 19.03% | Tobramycin released (%) ([6]; time 8 hour): 28.72% | Tobramycin released (%) ([6]; time 24 hour): 58.41% | Tobramycin released (%) ([6]; time 48 hour): 78.88% | Tobramycin released (%) ([6]; time 72 hour): 87.20% | AUC [7]: 1110 µg·h/mL | MIC (PACC#10): 1 µg/mL (≈ 2.14 µM) | MIC (PACC#6): ≥ 4 µg/mL | MIC (PACC#5): 0.5 µg/mL (≈ 1.07 µM) | MIC (PA14 DSMZ 19882): 0.5 µg/mL (≈ 1.07 µM) | MIC (PACC#9): 0.5 µg/mL (≈ 1.07 µM) | MIC (PACC#7): 0.5 µg/mL (≈ 1.07 µM) | MIC (PACC#8): 0.5 µg/mL (≈ 1.07 µM) | MIC (PAO1 DSMZ 22644): 0.5 µg/mL (≈ 1.07 µM) | MIC (P. aeruginosa ATCC 27853 [8]): 0.5 µg/mL (≈ 1.07 µM)

Colistin sulfate [Free Colistin sulfate]
MIC 50, Antibiotic conc. (P. aeruginosa): 1 to 5 µg/mL

gentamycin sulfate [Free Gentamycin sulfate]
MIC 50, Antibiotic conc. (S. aureus): 1 to 5 µg/mL | MIC 50, Antibiotic conc. (P. aeruginosa): 1 to 5 µg/mL
